Results on one compound are retold here after ChEMBL document CHEMBL2057110, “Investigation of the interaction between amodiaquine and human serum albumin by fluorescence spectroscopy and molecular modeling” (Eur J Med Chem, 2012).

Holding throughout (type): ADME
Holding throughout (conditions): isolated protein

Series [1] deals with T1, Albumin (Homo sapiens, UniProt P02768). Briefly: Binding affinity to human serum albumin assessed as Stern-Volmer association constant at pH 7.4 and 310K by spectrofluorimetry.
T1 sequence (P02768 whole entry): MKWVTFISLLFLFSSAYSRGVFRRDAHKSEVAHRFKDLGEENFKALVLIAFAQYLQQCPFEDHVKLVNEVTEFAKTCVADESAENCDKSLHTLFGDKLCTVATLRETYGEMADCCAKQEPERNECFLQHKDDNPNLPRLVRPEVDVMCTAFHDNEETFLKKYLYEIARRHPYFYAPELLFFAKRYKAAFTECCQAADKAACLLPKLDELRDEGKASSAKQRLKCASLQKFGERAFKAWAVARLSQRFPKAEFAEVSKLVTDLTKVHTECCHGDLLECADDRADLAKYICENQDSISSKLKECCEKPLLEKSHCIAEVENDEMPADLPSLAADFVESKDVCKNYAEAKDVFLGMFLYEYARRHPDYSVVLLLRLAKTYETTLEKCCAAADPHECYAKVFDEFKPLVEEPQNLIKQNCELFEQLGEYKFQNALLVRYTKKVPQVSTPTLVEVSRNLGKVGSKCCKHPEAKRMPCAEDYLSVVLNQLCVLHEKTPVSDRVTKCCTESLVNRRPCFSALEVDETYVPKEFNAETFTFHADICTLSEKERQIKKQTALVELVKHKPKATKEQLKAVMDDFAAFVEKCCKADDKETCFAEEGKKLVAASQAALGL
Series [2] concerns the target T1, Albumin. The experiment in a line: Apparent binding affinity to human serum albumin at pH 7.4 and 301K by spectrofluorimetry.
In series [3] the target is T1, Albumin. The experiment in a line: Apparent binding affinity to human serum albumin at pH 7.4 and 310K by spectrofluorimetrysis.
Series [4] concerns the target T1, Albumin. Briefly: Apparent binding affinity to human serum albumin at pH 7.4 and 291K by spectrofluorimetry.
For series [5], the target named is T1, Albumin. Briefly: Binding affinity to human serum albumin assessed as modified Stern-Volmer association constant at pH 7.4 and 291K by spectrofluorimetry in presence of ibuprofen.
Series [6] deals with T1, Albumin. Briefly: Binding affinity to human serum albumin assessed as Stern-Volmer association constant at pH 7.4 and 301K by spectrofluorimetry.
In series [7] the target is T1, Albumin. Briefly: Binding affinity to human serum albumin assessed as Stern-Volmer association constant at pH 7.4 and 291K by spectrofluorimetry.
Series [8] deals with T1, Albumin. Briefly: Binding affinity to human serum albumin assessed as modified Stern-Volmer association constant at pH 7.4 and 291K by spectrofluorimetry in presence of warfarin.
Series [9] concerns the target T1, Albumin. The experiment in a line: Binding affinity to human serum albumin assessed as modified Stern-Volmer association constant at pH 7.4 and 310K by spectrofluorimetry.

`CCN(CC)Cc1cc(Nc2ccnc3cc(Cl)ccc23)ccc1O.Cl`: the KSV at Albumin [1] came to 48400 M⁻¹; on Albumin [6] it was 56200 M⁻¹; on Albumin [7], 76600 M⁻¹. The Kb on Albumin [2] amounted to 48600 M⁻¹; at Albumin [3] it was 67300 M⁻¹; at Albumin [4], 35000 M⁻¹. Moreover, the results for the Ka on Albumin [5], on Albumin [8] and on Albumin [9] were 114000 M⁻¹, 73100 M⁻¹ and 45900 M⁻¹, respectively.
